Where “and” joins values, the source holds several entries; their conditions need not be identical. Identical values can stand only once. Like-named read-outs stand apart in the source and are kept apart here.
Tests used:
[1] = system: BCG pTIC6-fbpC; type: cell-based, Mycobacterium bovis BCG
[2] = system: BCG pVV16-mmpL3; type: cell-based, Mycobacterium bovis BCG
[3] = system: M. tuberculosis H37Rv; assay: Mycobacterial time kill experiments (total viable counts); type: cell-based, Mycobacterium tuberculosis; conditions: 96 μM
[4] = Mouse PK, multiple oral dosing of single compounds; type: in vivo, KM mice; conditions: for AUC(0-inf) / Cmax / Tmax / half-life: po
Excerpt: Methods for combined single dosing (BGAz001–005) and dosing of single compounds multiple times (BGAz004 and BGAz005) are described in detail in the Supporting Information (PK Data).
Report on PK results of BGAz-004 by multiple oral dosing
7 Materials and instrument combined dosing
An MS2 Turnover type oscillator was purchased from IKA Work’s Guangzhou (China), and a 5415R ChromatographicanalyseswereconductedusinganAgilent1290InfinityIIhighperformanceliquidchromatography andAgilentTechnologies6470TripleQuadLC/MS.Propranolol(≥90%inpurity,internalstandard,IS)waspurchased fromtheSigmaChemicalCo.(China).Formicacid(HPLCgrade)andmethanol(HPLCgrade)werepurchasedfrom DIKMACo.(China).Allchemicalsandsolventswereanalyticalgrade.WaterwaspurifiedusingaMillipore(AK,USA) laboratoryultra-purewatersystem(0.2μmfilter).
KMmice,weighing25–35g(BeijingVitalRiverLaboratoryAnimalTechnologyCo.,Ltd.,China)wereutilisedforthe studies.The protocols were approved by the Animal Care and Use Committee, GIBH. Animals were maintained on standard animal chow and waterad libitum, in a climate-controlled room (23±1 °C 30–70% relative humidity, a minimumof tenexchangesof roomairperhouranda12hlight/darkcycle)foroneweekpriortoexperiments.
9 Pharmacokinetic studies
Compound BGAz-004 were dissolved in the solution containing DMSO (2%), ethanol (4%), Cremophor EL (4%) and ddH2O (90%).The mice were given solution with 30 mg/kg bygastric gavagefor 3 days.Whole blood samples (100μL)wereobtainedfromtheorbitalvenousplexusatthefollowingtimepointsafterthethirddaydosing:5,15,30 min and 1, 3, 5, 8, 24 hour. Whole blood samples were collected in heparinised tubes. The plasma fraction was immediately separated by centrifugation. The mice were humanely euthanasia by carbon dioxide 24 hours after […]
10 Plasma sample analysis
10.1 Standard curve sample preparation
ThecompoundsweredissolvedinDMSO(2mg/mL)anddilutedwithtoseriesconcentration(methanol:H 2O,1:1,10 μL) and blank plasma (50 μL) were added to 1.5 mL tubes and vortexed for 3 min, then acetonitrile-containing internalstandard(150μL)wasaddedandvortexedforafurther5min,andsubsequentlyspuninacentrifugeat13000 […]
10.2 Plasma and preparation
Plasmasampleswerepreparedusingaproteinprecipitationmethod.Solution(10μL,methanolH 2O,1:1)andplasma samples(50μL)wereaddedto1.5mLtubesandvortexfor3min,thenacetonitrile-containinginternalstandard(150 μL)wasaddedandvortexfor5min,andsubsequentlyspuninacentrifugeat13000× gfor40minat4°C.
Aftercentrifugation,supernatant(100μL)wastransferto96wellplatesandanalysedbyLC-MS/MSusinganAgilent 1290InfinityIIHPLCandanAgilentTechnologies6470TripleQuadLC/MS.
Report on PK results of BGAz-005 by multiple oral dosing
13 Materials and instrument combined dosing […]
fromtheSigmaChemicalCo.(China).Formicacid(HPLCgrade)andmethanol(HPLCgrade)werepurchased from […]
15 Pharmacokinetic studies
Compound BGAz-005 were dissolved in the solution containing DMSO (2%), ethanol (4%), Cremophor EL (4%) […]
16 Plasma sample analysis
16.1 Standard curve sample preparation
16.2 Plasma and preparation

[5] = system: BCG pTIC6-fbpA; type: cell-based, Mycobacterium bovis BCG
[6] = system: BCG; type: cell-based, Mycobacterium bovis BCG; conditions: 0.5 × MIC
[7] = multiple PO 30 mg/kg, times 4, mean of animals

Q: For `Brc1cc(Br)cc(C2CC(CN3CCCC3)N2Cc2ccccc2Br)c1` (stereo not shown) [BGAz-004], which BCG pTIC6-fbpC MIC [1] is on record?
A: 34 µM

Q: And the “increase in MIC upon overexpression of FbpC” value [1]?
A: two-fold increase

Q: What about the BCG pVV16-mmpL3 MIC [2] of the same compound?
A: 40 µM

Q: And the “reduction of total viable count” value ([3]; after 6 days of exposure)?
A: 0.79 ± 2.20 log10 CFU mL^–1

Q: And the “reduction of total viable count” value ([3]; after 14 days' exposure)?
A: 1.90 ± 1.28 log10 CFU mL^–1

Q: What about the AUC(0-inf) ([4]; KM, mouse, plasma, 30 mg/kg, multiple PO 30 mg/kg, times 4, mean of animals, read-out: AUC(0-∞)) of the same compound?
A: 5420 ng·h/mL

Q: And the Cmax ([4]; KM, mouse, plasma, 30 mg/kg, multiple PO 30 mg/kg, times 4, mean of animals, read-out: Cmax)?
A: 364 ng/mL

Q: What about the Tmax ([4]; KM, mouse, plasma, 30 mg/kg, multiple PO 30 mg/kg, times 4, mean of animals, read-out: Tmax) of the same compound?
A: 1 h

Q: And the half-life ([4]; KM, mouse, plasma, 30 mg/kg, multiple PO 30 mg/kg, times 4, mean of animals, read-out: t1/2z (converted))?
A: 8.07 h

Q: And the AUC(0-inf) ([4]; KM, mouse, plasma, 30 mg/kg, multiple PO, times 4, 30 mg/kg, summary table, read-out: AUC(0-∞))?
A: 5420 ng·h/mL

Q: What about the Cmax ([4]; KM, mouse, plasma, 30 mg/kg, multiple PO, times 4, 30 mg/kg, summary table, read-out: Cmax) of the same compound?
A: 364 ng/mL

Q: What about the half-life ([4]; KM, mouse, plasma, 30 mg/kg, multiple PO, times 4, 30 mg/kg, summary table, read-out: T1/2 (converted)) of the same compound?
A: 8.07 h

Q: What about the Tmax ([4]; KM, mouse, plasma, 30 mg/kg, multiple PO, times 4, 30 mg/kg, summary table, read-out: Tmax) of the same compound?
A: 1 h

Q: And the AUC(0-inf) ([4]; KM, mouse, plasma, 30 mg/kg, multiple daily dosing 4 × 30 mg/kg PO, read-out: AUC0-inf)?
A: 5420 ng·h/mL

Q: What about the Cmax ([4]; KM, mouse, plasma, 30 mg/kg, multiple daily dosing 4 × 30 mg/kg PO, read-out: Cmax (Mouse, P.O.)) of the same compound?
A: 363 ng/mL

Q: What about the half-life ([4]; KM, mouse, plasma, 30 mg/kg, multiple daily dosing 4 × 30 mg/kg PO, read-out: T1/2 (Mouse, P.O.) (converted)) of the same compound?
A: 8.1 h

Q: What about the Tmax ([4]; KM, mouse, plasma, 30 mg/kg, multiple daily dosing 4 × 30 mg/kg PO, read-out: Tmax (Mouse, P.O.)) of the same compound?
A: 1 h

Q: And the concentration at 0.083 h ([4]; KM, mouse, plasma, multiple PO 30 mg/kg, times 4, 0.083 h)?
A: 214 nM and 115 ng/mL

Q: And the concentration at 0.25 h ([4]; KM, mouse, plasma, multiple PO 30 mg/kg, times 4, 0.25 h)?
A: 361 nM and 195 ng/mL

Q: What about the concentration at 0.5 h ([4]; KM, mouse, plasma, multiple PO 30 mg/kg, times 4, 0.5 h) of the same compound?
A: 590 nM and 319 ng/mL

Q: And the concentration at 1 h ([4]; KM, mouse, plasma, multiple PO 30 mg/kg, times 4, 1 h)?
A: 674 nM and 364 ng/mL

Q: And the concentration at 3 h ([4]; KM, mouse, plasma, multiple PO 30 mg/kg, times 4, 3 h)?
A: 594 nM and 321 ng/mL

Q: And the concentration at 5 h ([4]; KM, mouse, plasma, multiple PO 30 mg/kg, times 4, 5 h)?
A: 268 ng/mL and 496 nM

Q: And the concentration at 8 h ([4]; KM, mouse, plasma, multiple PO 30 mg/kg, times 4, 8 h)?
A: 243 ng/mL and 450 nM

Q: What about the concentration at 24 h ([4]; KM, mouse, plasma, multiple PO 30 mg/kg, times 4, 24 h) of the same compound?
A: 63.7 ng/mL and 118 nM

Q: And the AUC(0-t) ([4]; KM, mouse, plasma, multiple PO 30 mg/kg, times 4, mean of animals)?
A: 4760 ng·h/mL

Q: What about the CL/F ([4]; KM, mouse, plasma, multiple PO 30 mg/kg, times 4, mean of animals, read-out: CLz/F (converted)) of the same compound?
A: 95.4 mL/min/kg

Q: What about the MRT last ([4]; KM, mouse, plasma, multiple PO 30 mg/kg, times 4, mean of animals, read-out: MRT(0-t)) of the same compound?
A: 7.85 h

Q: What about the MRT inf ([4]; KM, mouse, plasma, multiple PO 30 mg/kg, times 4, mean of animals, read-out: MRT(0-∞)) of the same compound?
A: 11.7 h

Q: And the Vd/F ([4]; KM, mouse, plasma, multiple PO 30 mg/kg, times 4, mean of animals, read-out: Vz/F)?
A: 67.5 L/kg

Q: And the k el ([4]; KM, mouse, plasma, multiple PO 30 mg/kg, times 4, mean of animals, read-out: λz (converted))?
A: 2.89e-05 s⁻¹

Q: And the “AUMC(0-t)” value [4, 7]?
A: 36514.994 h*h*μg

Q: What about the “AUMC(0-∞)” value [4, 7] of the same compound?
A: 62413.77 h*h*μg

Q: What about the C_last [4, 7] of the same compound?
A: 46.151 µg

Q: What about the “R_AUC(t/∞)” value [4, 7] of the same compound?
A: 87.55%

Q: What about the “VRT(0-t)” value [4, 7] of the same compound?
A: 41.471 h^2

Q: And the “VRT(0-∞)” value [4, 7]?
A: 162.525 h^2

Q: What about the “T1/2 (Mouse, P.O.)” value ([4]; multiple daily dosing 4 × 30 mg/kg PO, 30 mg/kg) of the same compound?
A: 8.07 h

Q: And the BCG pTIC6-fbpA MIC [5]?
A: 20 µM

Q: What about the “TMM and TDM in cell envelope lipids” value [6] of the same compound?
A: significant reduction
